In patent publication US12421317B2, “Polynucleotides encoding anti-glucagon-like peptide 1 receptor (GLP1R) antagonist antibodies” (Regeneron Pharmaceuticals, Inc., priority 2020, dated 2025):
Marks after values point to notes of the source that are not given here.

System: GLP1R humanized mice
Assay: GLP1-induced hypoglycemia (Exendin-4 challenge) in GLP1R humanized mice, glucose AUC (Example 6)
Format: in vivo
Details: for Normalized glucose AUC during Exendin-4 challenge: Exendin-4 at 0-min, test article 10 mg/kg s.c., mean
Procedure: Thirty-nine, 2.5-month-old male GLP1R humanized mice were randomly divided into one group of sixteen mice, two groups of eight mice, and one group of seven mice. On Day 0, the group of sixteen animals (Groups 1 and 2) were administered subcutaneously (s.c.) with a hIgG4 isotype control antibody (referred to as isotype control, dose of 10 mg/kg). […] The group of seven animals (Group 5) was administered s.c. (dose of 10 mg/kg) with mAb36986. […] […] At the same time point, animals in Groups 3, 4, and 5 were administered i.p. with Exendin-4 (dose of 0.01 mg/kg). For all animals, blood glucose levels were measured with a handheld glucometer immediately before and 15, 30, 60, and 120 minutes after saline or Exendin-4 administration. All animals remained in their assigned groups until the study completion on Day 80. With animals in Groups 1, 2, 4, and 5, the Exendin-4 challenge was repeated on Days 3, 7, 15, 21, 29, 65, and 80.
The AUC value of each animal at each challenge was normalized to the mean AUC value of Group 1. Statistical analyses were performed by one-way ANOVA followed by Bonferroni post-hoc tests, comparing Groups 1, 3, 4, or 5 to Group 2, for each challenge.

Exendin-3 (9-39) amide [Exendin-9, reference compound]
correction of Exendin-4 induced hypoglycemia (10 mg/kg s.c.): correction of Exendin-4 induced hypoglycemia when Exendin-4 challenge was performed 30 minutes post Exendin-9 administration, but not when the challenge was performed 4.5 or 24 hours post Exendin-9 administration
Normalized glucose AUC during Exendin-4 challenge (0.5 h post test article): 101.3**** % of Group 1
Normalized glucose AUC during Exendin-4 challenge (4.5 h post test article): 70.1 % of Group 1
Normalized glucose AUC during Exendin-4 challenge (24 h post test article): 74.1 % of Group 1
